In one data set the target is T1, elastase (Sus scrofa, UniProt P00772).
T1 construct: purchased Invitrogen
Briefly: Elastase inhibitory activity (EnzChek Elastase Assay Kit, DQ elastin). The data set is classed as biochemical. The following applies: for inhibition at 20 µg/mL: 0.02 mg/ml; for inhibition at 40 µg/mL: 0.04 mg/ml; for inhibition at 60 µg/mL: 0.06 mg/ml. As to the method:
Elastase inhibitory activity was performed by purchasing EnzChek® Elastase Assay Kit (600 Assays) reagent from Invitrogen. First, DQ elastin stock solution (1 mg/ml) was prepared by adding 1.0 ml of DDW to 1 mg DQ elastin vial. The 18 ml of DDW was added to 2 ml of 10× reaction buffer, so as to dilute reaction buffer. Then, an elastase enzyme reagent was prepared, and diluted with reaction buffer to a final concentration of 0.2 U/ml as working solution. Three samples of 50 ? each were prepared in a 96-well plate. The 50 ? of reaction buffer was added to 50 ? of DQ elastin and sample blank, and 50 ? of working solution was added to a sample, which were then left in a light-blocked state at room temperature for about one hour, and then fluorescence intensity was measured at excitation wavelength 505 nm and emission wavelength 515 nm using ELISA plate reader (VICTOR X3™, PerkinElmer, US).
Copper peptide (Comparative Example 12) and EGCg (Comparative Example 13), which is widely used as a raw material for functional cosmetics, were prepared at the same concentration and used as a positive control.
EGCg (epigallocatechin gallate) is a kind of polyphenol, which is an extract of green tea leaves, and is used as a cosmetic raw material for anti-oxidation, inflammation reduction, and wrinkle alleviation, and Copper peptide is used as a raw material for promoting wound healing, strengthening skin elasticity, and increasing subcutaneous fat layer to suppress skin aging due to excellent skin regeneration ability.

A further data set concerns gelatinase. Nature of the data set: Gelatinase inhibitory activity (EnzChek Gelatinase/Collagenase Assay Kit, DQ gelatin). The data set is classed as biochemical. Here is the method:
Gelatinase is an enzyme which plays a major role in promoting skin aging by more finely degrading collagen fragments digested by MMP-1 with MMP-2, and wrinkle reduction activity was determined by measuring the inhibitory activity of the enzyme.
(§1) Gelatinase inhibitory activity was performed by purchasing EnzChek® Gelatinase/Collagenase Assay Kit (250-2000 Assays) reagent from Invitrogen. First, DQ gelatin stock solution (1 mg/ml) was prepared by adding 1.0 ml of DDW to 1 mg DQ gelatin vial. The 18 ml of DDW was added to 2 ml of 10× reaction buffer, so as to dilute reaction buffer. Then, a gelatinase enzyme reagent was prepared, and diluted with reaction buffer to a final concentration of 0.2 U/ml as working solution. Three samples of 50 ? each were prepared in a 96-well plate. The 30 ? of reaction buffer was added to 20 ? of DQ gelatin and sample blank, and 30 ? of working solution was added to a sample, which were then left in a light-blocked state at room temperature for about one to two hours, and then fluorescence intensity was measured at excitation wavelength 485 nm and 535 nm using ELISA plate reader (VICTOR X3™, PerkinElmer, US).

Data set [1] has as its target T2, MMP1 protein (pdb1cgl) (Homo sapiens, UniProt P03956).
T2 sequence (P03956 101-269 limits assumed): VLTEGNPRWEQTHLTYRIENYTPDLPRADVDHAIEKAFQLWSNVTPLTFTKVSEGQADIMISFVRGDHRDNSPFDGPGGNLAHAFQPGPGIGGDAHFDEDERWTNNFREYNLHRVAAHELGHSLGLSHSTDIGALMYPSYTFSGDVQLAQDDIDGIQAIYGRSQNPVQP
Nature of the data set: Molecular docking (SYBYL-X 2.1.1, Surflex-Dock 2.7) of binding affinity to collagenase. The note with it: from Surflex-Dock total score. Here is the method:
Molecular modeling was conducted through a computer simulation program.
Target structure: MMP1 protein (pdb1cgl)
Software: SYBYL-X 2.1.1, Surflex-Dock2.7
Through a computer simulation program, a study was conducted on how to promote collagenase enzyme inhibitory activity and percutaneous absorption during peptide modification.
Total score is a value indicating the degree of binding affinity of a docked structure including a crash and a polar interaction in the unit of pKd, and the larger the value, the higher the binding affinity. And, the similarity is a value comparing the similarity with the structure already bonded to the 1cgl, and means that the closer to 1, the more similar. The result of such docking means that the addition of an appropriate modification residue through a docking simulation of computer chemistry may increase the binding affinity and similarity.
However, when compared with the overall consensus score, a binding affinity similar to or higher than that of pdb1cgl_ligand may be expected, particularly in the modified GPN and PGN, too.

In data set [2] the target is T2, MMP1 protein (pdb1cgl). The note with it: ligand binding to pdb; cited from earlier work.
For a further data set, the system named is collagenase. Nature of the data set: Collagenase inhibitory activity (EnzChek Gelatinase/Collagenase Assay Kit, DQ collagen). In kind it is biochemical. As to the method: as §1, with “Collagenase inhibitory activity” for “Gelatinase inhibitory activity”, “First, DQ collagen stock solution” for “First, DQ gelatin stock solution”, “mg DQ collagen vial. The” for “mg DQ gelatin vial. The”, “Then, a collagenase enzyme reagent” for “Then, a gelatinase enzyme reagent”, “of DQ collagen and sample” for “of DQ gelatin and sample”, “nm and emission wavelength 535 nm” for “nm and 535 nm”
As a positive control, copper peptide (Comparative Example 12), which is a representative peptide widely used as a raw material for functional cosmetics, was prepared at the same concentration and used. Copper peptide has excellent skin regeneration ability and thus is used as a raw material to suppress skin aging by promoting wound healing, strengthening skin elasticity, and increasing subcutaneous fat layers.

A short description of data set [3]: HaCaT cytotoxicity test (MTS cell viability). In kind it is cell-based. The note with it: human, HaCaT cells (skin epidermal cells); for viability at 24 h, 1 µg/mL: 1 μg/ml; for viability at 24 h, 10 µg/mL: 10 μg/ml; for viability at 24 h, 50 µg/mL: 50 μg/ml; for viability at 24 h, 100 µg/mL: 100 μg/ml. Here is the method: HaCaT cells, skin epidermal cells (derived from human), were used. The medium was DMEM low (SH30021.01, HyClone™, Logan, UT, USA) medium containing 10% fetal bovine serum (FBS, Lonza, Valais, Switzerland) medium. The cell lines were cultured in an incubator adjusted to 95% humidity, 5% CO2 and 37° C., and at this time, a medium antibiotic (Penicillin streptomycin, Gibco, Calif., USA) was used to suppress contamination or proliferation of microorganisms. When the cells covered the dish about 80%, the cells were washed with phosphated-buffered saline-EDTA (PBS-EDTA), and then the cells attached to the bottom of the dish were detached by treating with 1 ml of 0.05% trypsin EDTA, and subjected to subculture. The medium was exchanged every 48 hours to culture the cells.
Cell viability was measured using MTS (CellTiter 96® AQueous One Solution Cell Proliferation Assay, Promega, USA) reagent. The cells were divided at a concentration of 1×10^4 cells/well in a 96-well plate and then stabilized for 24 hours in an incubator controlled to 95% humidity, 5% CO2 and 37° C. After that, the samples were treated for each concentration (table 1) and cultured for 24 hours in an incubator controlled to 95% humidity, 5% CO2 and 37° C. After the medium was removed, 9 ml of medium (DMEM low, free FBS) was added to 1 ml of the reagent and diluted, and then 100 ul of the diluted solution was treated per well. After the reaction at 37° C. for 60 minutes, absorbance was measured at 490 nm with microplate reader (Molecular Devices, VersaMax ELISA Microplate Reader, USA). Cell viability was represented by absorbance of a sample-treated group compared to a control group not treated with the sample.

The nature of data set [4]: HS68 cytotoxicity test (MTS cell viability). In kind it is cell-based. The following applies: human, HS68 cells (skin fibroblasts); for viability at 24 h, 1 µg/mL: HS68, 1 μg/ml; for viability at 24 h, 10 µg/mL: HS68, 10 μg/ml; for viability at 24 h, 50 µg/mL: HS68, 50 μg/ml; for viability at 24 h, 100 µg/mL: HS68, 100 μg/ml. Here is the method:
Skin fibroblast HS68 cells were used. The medium was DMEM high glucose (SH30243.01, HyClone™, Logan, UT, USA) medium containing 10% fetal bovine serum (FBS, Lonza, Valais, Switzerland) medium. The cell lines were cultured in an incubator adjusted to 95% humidity, 5% CO2 and 37° C., and at this time, a medium antibiotic (Penicillin streptomycin, Gibco, Calif., USA) was used to suppress contamination or proliferation of microorganisms.
Cell viability was measured using MTS (CellTiter 96® AQueous One Solution Cell Proliferation Assay, Promega, USA) reagent. The cells were divided at a concentration of 1×10^4 cells/well in a 96-well plate and then stabilized for 24 hours in an incubator controlled to 95% humidity, 5% CO2 and 37° C. After that, the samples were treated for each concentration and cultured for 24 hours in an incubator controlled to 95% j humidity, 5% CO2 and 37° C. After the medium was removed, 9 ml of medium (DMEM high, free FBS) was added to 1 ml of the reagent and diluted, and then 100 ul of the diluted solution was treated per well. After the reaction at 37° C. for 60 minutes, absorbance was measured at 490 nm with microplate reader (Molecular Devices, VersaMax ELISA Microplate Reader, USA). Cell viability was represented by absorbance of a sample-treated group compared to a control group not treated with the sample.

T1 sequence (P00772 27-266): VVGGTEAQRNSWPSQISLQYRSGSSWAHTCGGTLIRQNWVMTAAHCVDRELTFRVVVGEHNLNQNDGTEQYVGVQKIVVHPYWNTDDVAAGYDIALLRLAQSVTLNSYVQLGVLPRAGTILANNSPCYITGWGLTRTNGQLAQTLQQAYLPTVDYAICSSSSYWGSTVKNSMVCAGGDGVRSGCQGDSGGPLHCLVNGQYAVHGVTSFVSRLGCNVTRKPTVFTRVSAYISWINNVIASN

For the compound `O=C(O[C@@H]1Cc2c(O)cc(O)cc2O[C@@H]1c1cc(O)c(O)c(O)c1)c1cc(O)c(O)c(O)c1` [EGCg, epigallocatechin gallate, reference compound], the entries for the “elastase inhibitory activity” value on elastase (0.1 mg/ml) and on elastase (1 mg/ml) were 66.1 ± 4.4% and 66.1%, respectively. The same compound returned a Gelatinase inhibitory activity in the data set with gelatinase (0.5 mg/ml) of 74.7%.
As for `NCC(=O)N1CCC[C@H]1C(=O)N[C@@H](CC(N)=O)C(=O)O` [GPN, Gly-Pro-Asn, reference compound], the “binding affinity compared to 1cgl ligand” value at MMP1 protein (pdb1cgl) [1] is listed as “about 51.8%”.
Turning to `CCCC(=O)C(CC(N)=O)NC(=O)C1CCCN1C(=O)CNC` (stereo not shown) [Me-GPN-Propyl], at MMP1 protein (pdb1cgl) [1], the “binding affinity compared to 1cgl ligand” value is reported as 74.7% and the “increase of binding affinity compared to before the modification” value is recorded as 21.9%.
The like results for `CCCC(=O)C(CC(N)=O)NC(=O)CNC(=O)C1CCCN1C` (stereo not shown) [Me-PGN-Propyl] were, in that order, 90.1% and 28.6%.
As usually defined, the Ki is the equilibrium dissociation constant of an inhibitor or competing ligand from its target. For the compound `COC(=O)NCC[C@@H](N[C@@H](CC(C)C)C(=O)N[C@@H](Cc1ccccc1)C(=O)NCCN1CCOCC1)C(=O)O` [PDB 1CGL], the Ki on MMP1 protein (pdb1cgl) [2] is 0.135 µM.
As usually defined, the inhibition is the drop in the measured response relative to a control, in per cent. What is called IC50 is the concentration that inhibits the measured activity by half. Lower therefore signals greater potency. Usually viability stands for a read-out of living cells in per cent, often relative to untreated cells. Regarding `CCCOC(=O)[C@H](CC(N)=O)NC(=O)CNC(=O)[C@@H]1CCCN1` [PGN-OPr, PGN(Pro-Gly-Asn)-OPr], the Collagenase inhibitory activity in the data set on collagenase (0.05 mg/ml) turned out to be 5.7 ± 3.1%; in the data set on collagenase (0.1 mg/ml) it was 14.3 ± 5.2%; with collagenase (0.5 mg/ml) it was 67.1 ± 0.8%; in the data set with collagenase (1 mg/ml) it was 98.7%. Moreover, at collagenase (FIGS. 5 and 6), the “collagenase inhibitory activity IC50” value was 508 µg/mL. The compound also had an inhibition at 20 µg/mL at elastase of 17.3 ± 1.1%. On elastase, this compound had an inhibition at 40 µg/mL of 27.5 ± 2.5%. The same compound showed an inhibition at 60 µg/mL against elastase of 34.2 ± 0.5%. At elastase (0.1 mg/ml), this compound registered an inhibition at 100 µg/mL of 77.6 ± 2.8%. The inhibition at 1000 µg/mL on elastase (1 mg/ml) stood at 77.6%. On elastase (FIGS. 8 and 9), this compound gave a half-inhibitory concentration (IC50) of 216 µM. The Gelatinase inhibitory activity is reported as 16.9 ± 2.7% in the data set with gelatinase (0.2 mg/ml), 54.2 ± 6.3% in the data set on gelatinase (0.3 mg/ml), 96.4 ± 1.8% with gelatinase (0.4 mg/ml) and 98.9% in the data set on gelatinase (0.5 mg/ml). In addition, the “gelatinase inhibitory activity, times higher than that of Copper peptide” value in the data set on gelatinase (0.5 mg/ml) is reported as approximately 15 times. Also, the “gelatinase inhibitory activity, times higher than that of EGCg” value in the data set on gelatinase (0.5 mg/ml) is given as “about 1.3 times”. The results for the viability at 24 h, 1 µg/mL in data set [3] and in data set [4] were 117 ± 9.6% and 107 ± 2.4%, respectively. Moreover, the viability at 24 h, 10 µg/mL in data set [3] is 126 ± 14.1%; in data set [4] it was 107 ± 8.9%. In addition, the figures for the viability at 24 h, 50 µg/mL in data set [3] and in data set [4] were 130 ± 13.3% and 115 ± 6.9%, respectively. The viability at 24 h, 100 µg/mL in data set [3] turned out to be 128 ± 5.3%; in data set [4], 116 ± 3.6%.
At elastase, `CCCCCCCCCCCCCCCC(=O)N1CCC[C@H]1C(=O)NCC(=O)N[C@@H](CC(N)=O)C(=O)O` [Pal-PGN] came in with an inhibition at 20 µg/mL of 0.3 ± 0.9%, an inhibition at 40 µg/mL of 1.2 ± 2.8% and an inhibition at 60 µg/mL of 1.5 ± 2%. This compound yielded an inhibition at 100 µg/mL at elastase (0.1 mg/ml) of 5.2 ± 2.9%. Further, in data set [3], the viability at 24 h, 1 µg/mL was 115 ± 10%; the viability at 24 h, 10 µg/mL was 112 ± 3.7%; the viability at 24 h, 50 µg/mL was 113 ± 7.7%; the viability at 24 h, 100 µg/mL was 108 ± 6.5%. Also, in data set [4], the viability at 24 h, 1 µg/mL was determined as 106 ± 2.9%; the viability at 24 h, 10 µg/mL was 111 ± 2.8%; the viability at 24 h, 50 µg/mL is 105 ± 3.3%; the viability at 24 h, 100 µg/mL was found to be 116 ± 3.3%.

The record behind these values is patent US20230312643A1, “PEPTIDE DERIVATIVE WITH COLLAGENASE INHIBITORY ACTIVITY, AND USE THEREOF” (SUNMARINE BIOTECH, priority 2020, published 2023).
